The results in this text go back to patent US12122816B2, “Long acting peptide tyrosine tyrosine (PYY) analogs and methods of use” (Intarcia Therapeutics, Inc., priority 2020, dated 2024).

Molecules are shown by their SMILES. Starred links: 1 amine or outer side, 2 acyl side, 3 side chain; linkers in the order of their positions; H or OH if unused. Positions of bridges follow the written chain, without caps; N, C: chain ends. Residues, ends and D or L forms follow the SMILES beside them. Groups on a side chain read outwards from the residue. *: point of attachment. C19 diacid = O=C(O)CCCCCCCCCCCCCCCCCC(=O)*; γGlu = O=C(O)[C@H](CCC(=O)[*:2])N[*:1]

By EC50 is commonly meant the concentration giving half of the maximal effect. A lower EC50 goes with greater potency.

The nature of data set [1]: Solubility in DI water at room temperature (visual inspection). In kind it is physicochemical. To be noted: TFA salt form. On the procedure: The analog polypeptides described herein were tested for solubility in saline or in aqueous (DI water) at room temperature. Samples were visually inspected for clarity of the sample, any appearance of turbidity or haziness.
The nature of data set [2]: Stability in water or saline (1 mg/ml) at 37° C., purity by LC/MS and HPLC. In kind it is physicochemical. To be noted: TFA salt form.
For a further data set, the target named is T1, human Y5 receptor (Homo sapiens, UniProt Q15761).
T1 sequence (Q15761 1-445): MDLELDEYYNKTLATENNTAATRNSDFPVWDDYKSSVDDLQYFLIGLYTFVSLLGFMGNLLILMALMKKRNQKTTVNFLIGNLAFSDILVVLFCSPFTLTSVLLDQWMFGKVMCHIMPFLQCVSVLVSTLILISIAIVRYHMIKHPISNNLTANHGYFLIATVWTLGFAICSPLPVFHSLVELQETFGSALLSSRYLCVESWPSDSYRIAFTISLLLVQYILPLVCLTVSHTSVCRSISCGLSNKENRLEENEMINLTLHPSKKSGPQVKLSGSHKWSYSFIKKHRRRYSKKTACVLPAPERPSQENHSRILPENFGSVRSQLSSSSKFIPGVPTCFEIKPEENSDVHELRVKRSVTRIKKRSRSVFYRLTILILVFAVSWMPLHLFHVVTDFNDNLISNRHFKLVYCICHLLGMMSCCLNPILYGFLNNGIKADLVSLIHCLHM
Put plainly: NPY receptor functional assay (cAMP, HEK-CNG cells, ACTOne membrane potential dye). In kind it is cell-based. To be noted: NPY5R pEC50, HEK-CNG cells; standard NPY; species (human or rat) not given. In a few lines:
(§1)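 HEK-CNG cells stably expressing each human receptor; peptides added in triplicate for 50 minutes at room temperature, with agonism read as decreased isoproterenol-induced membrane potential dye signal (final/initial read).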

The next data set has as its target T2, human Y2 receptor (Homo sapiens, UniProt P49146).
T2 sequence (P49146 1-381): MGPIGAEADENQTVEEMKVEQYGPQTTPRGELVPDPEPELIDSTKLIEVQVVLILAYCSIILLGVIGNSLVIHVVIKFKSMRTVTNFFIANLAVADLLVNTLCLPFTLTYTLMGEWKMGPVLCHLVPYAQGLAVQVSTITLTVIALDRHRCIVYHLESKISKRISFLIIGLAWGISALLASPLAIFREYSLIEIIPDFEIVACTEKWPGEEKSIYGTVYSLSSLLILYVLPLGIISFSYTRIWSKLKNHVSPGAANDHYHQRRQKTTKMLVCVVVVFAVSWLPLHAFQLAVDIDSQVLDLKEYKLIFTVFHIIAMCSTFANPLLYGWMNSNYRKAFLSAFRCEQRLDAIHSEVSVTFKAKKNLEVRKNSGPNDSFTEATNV
The description is as above. As to conditions: NPY2R pEC50, HEK-CNG cells; standard PYY(3-36); species (human or rat) not given. In kind it is cell-based. A digest of the protocol:
as §1

A further data set concerns the target T3, human Y1 receptor (Homo sapiens, UniProt P25929).
T3 sequence (P25929 1-384): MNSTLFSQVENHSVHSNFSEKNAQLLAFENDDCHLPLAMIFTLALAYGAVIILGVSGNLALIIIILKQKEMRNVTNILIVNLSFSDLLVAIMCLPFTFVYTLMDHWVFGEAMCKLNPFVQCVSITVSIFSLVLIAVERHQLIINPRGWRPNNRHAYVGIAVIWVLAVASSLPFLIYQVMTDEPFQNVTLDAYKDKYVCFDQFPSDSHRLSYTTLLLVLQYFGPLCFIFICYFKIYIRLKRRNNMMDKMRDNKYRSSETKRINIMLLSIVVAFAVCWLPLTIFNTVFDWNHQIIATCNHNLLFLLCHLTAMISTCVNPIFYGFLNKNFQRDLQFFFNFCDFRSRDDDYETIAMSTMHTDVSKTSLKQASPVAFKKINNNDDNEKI
Described as above. In kind it is cell-based. The text has this: The NPY family of G-protein coupled receptors include Y1, Y2, Y4, and Y5 in humans and rats. […] Following agonist binding, the receptor-G protein complex activates a downstream intracellular signaling cascade which leads to inhibition of adenylate cyclase and a reduction in intracellular cAMP levels.
HEK-CNG cells stably expressing the human or rat Y1, Y2, Y4 or Y5 receptors (Codex Biosolutions) were used to characterize the functional potency of peptide agonists using the ActOne™ membrane potential dye kit (Codex Biosolutions). In addition to each NPY receptor, each cell line encodes a proprietary exogenous Cyclic Nucleotide-Gated (CNG) channel (Codex Biosolutions). The channel is activated by elevated intracellular levels of cAMP, resulting in ion flux and cell membrane depolarization which can be detected with a calcium sensitive dye or fluorescent membrane potential (MP) dye. Cells were carried in growth media containing 90% DMEM, 10% FBS, 250 mcg/mL G418 and 1 mcg/mL puromycin for no more than 15 passages.
Prior to testing, cells were counted and dispensed at 14,000 cells per well (Y1, Y4 and Y5) or 28,000 cells per well (Y2) into black 384 well Poly-D-Lysine plates at 20 mcL per well. Covered plates were then incubated at room temperature for 30 minutes followed by an overnight incubation at 37° C. in 5% C02. The following day, media was removed and wells were washed once with 40 mcL Dulbecco's phosphate buffered saline. […] Ten microliters of experimental peptide or peptide standard was added in triplicate to wells and incubated for 50 minutes at room temperature in the dark. Following this incubation step, plates were read again as before (final read).
NPY receptor activation, leading to a reduction in intracellular cAMP levels, is detected as a decrease in isoproteranol induced fluorescent signal. Peptide standard and experimental values were initially transformed in excel using the formula: final read/initial read. […] Normalized data was analyzed from triplicate tests and used to estimate the EC50 for each test peptide on each receptor. Data was fit in GraphPad Prism software (v8.2.1) using a 3-parameter logistic curve model: Y=Bottom+(Top−Bottom)/(1+10^((LogEC50−X))). EC50 values were converted to pEC50 values using the formula: pEC50=−Log(EC50).

Turning to `CC(C)C[C@H](NC(=O)[C@H](CC(=O)O)NC(=O)[C@@H]1CCCCNC(=O)CC[C@H](NC(=O)[C@H](Cc2c[nH]c3ccccc23)NC(=O)[C@H](CCC(=O)O)NC(=O)[C@H](CCCCN)NC(=O)[C@@H]2CCCN2C(=O)[C@H](CO)NC(=O)[C@H](C)NC(=O)[C@H](CC(=O)O)NC(=O)[C@H](CCCCNC(=O)CC[C@H](NC(=O)CC[C@H](NC(=O)CCCCCCCCCCCCCCCCCC(=O)O)C(=O)O)C(=O)O)NC(=O)CNC(=O)[C@@H]2CCCN2C(=O)[C@H](CCCCN)NC(=O)[C@H](CCC(=O)O)NC(=O)[C@@H]2CCCN2C(=O)[C@H](CCCCN)NC(=O)[C@@H]2CCCN2)C(=O)N[C@@H](CCCNC(=N)N)C(=O)N[C@@H](Cc2ccc(O)cc2)C(=O)N[C@@H](Cc2ccc(O)cc2)C(=O)N1)C(=O)N[C@@H](CCCNC(=N)N)C(=O)N[C@@H](Cc1c[nH]cn1)C(=O)N[C@@H](Cc1ccc(O)cc1)C(=O)N[C@@H](CC(C)C)C(=O)N[C@@H](CC(N)=O)C(=O)N[C@@H](Cc1c[nH]c2ccccc12)C(=O)N[C@@H](CC(C)C)C(=O)N[C@H](C(=O)N[C@@H](CCCNC(=N)N)C(=O)N[C@@H](CCC(N)=O)C(=O)N[C@@H](CCCNC(=N)N)C(=O)N[C@@H](Cc1ccccc1)C(N)=O)[C@@H](C)O` [Compound A39] (H-PKPEKPGK([γGlu-γGlu-C19 diacid])DASPKEWERYYKDLRHYLNWLTRQRF-NH2; lactam 16-20; N-terminus assumed), the “Solubility (in Water, RT)” value in data set [1] worked out at 16 mg/mL. Further, the “Stability (37° C./RT, T0: Mar. 25, 2020)” value in data set [2] is listed as 95.9.
Taken in the same sequence, the figures for `CC(C)C[C@H](NC(=O)[C@H](CC(=O)O)NC(=O)[C@@H]1CCCCNC(=O)C[C@H](NC(=O)[C@H](Cc2c[nH]c3ccccc23)NC(=O)[C@H](CCC(=O)O)NC(=O)[C@H](CCCCN)NC(=O)[C@@H]2CCCN2C(=O)[C@H](CO)NC(=O)[C@H](C)NC(=O)[C@H](CC(=O)O)NC(=O)[C@H](CCCCNC(=O)CC[C@H](NC(=O)CC[C@H](NC(=O)CCCCCCCCCCCCCCCCCC(=O)O)C(=O)O)C(=O)O)NC(=O)CNC(=O)[C@@H]2CCCN2C(=O)[C@H](CCCCN)NC(=O)[C@H](CCC(=O)O)NC(=O)[C@@H]2CCCN2C(=O)[C@H](CCCCN)NC(=O)[C@@H]2CCCN2)C(=O)N[C@@H](CCCNC(=N)N)C(=O)N[C@@H](Cc2ccc(O)cc2)C(=O)N[C@@H](Cc2ccc(O)cc2)C(=O)N1)C(=O)N[C@@H](CCCNC(=N)N)C(=O)N[C@@H](Cc1c[nH]cn1)C(=O)N[C@@H](Cc1ccc(O)cc1)C(=O)N[C@@H](CC(C)C)C(=O)N[C@@H](CC(N)=O)C(=O)N[C@@H](Cc1c[nH]c2ccccc12)C(=O)N[C@@H](CC(C)C)C(=O)N[C@H](C(=O)N[C@@H](CCCNC(=N)N)C(=O)N[C@@H](CCC(N)=O)C(=O)N[C@@H](CCCNC(=N)N)C(=O)N[C@@H](Cc1ccccc1)C(N)=O)[C@@H](C)O` [Compound A40] were 27 mg/mL and 98.1.
`CC(C)C[C@H](NC(=O)[C@H](Cc1ccc(O)cc1)NC(=O)[C@H](Cc1c[nH]cn1)NC(=O)[C@H](CCCNC(=N)N)NC(=O)[C@H](CC(C)C)NC(=O)[C@H](CC(=O)O)NC(=O)[C@@H](CCCCNC(=O)CC[C@H](NC(=O)COCCOCCNC(=O)COCCOCCNC(=O)CC[C@H](NC(=O)CCCCCCCCCCCCCCCCCCC(=O)O)C(=O)O)C(=O)O)NC(=O)[C@H](Cc1ccc(O)cc1)NC(=O)[C@H](Cc1ccc(O)cc1)NC(=O)[C@H](CCCNC(=N)N)NC(=O)[C@H](CC(N)=O)NC(=O)[C@H](Cc1c[nH]c2ccccc12)NC(=O)[C@H](CCC(=O)O)NC(=O)[C@H](CCC(=O)O)NC(=O)[C@@H]1CCCN1C(=O)[C@H](CO)NC(=O)[C@H](C)NC(=O)[C@H](CC(=O)O)NC(=O)[C@H](CCCCN)NC(=O)CNC(=O)[C@@H]1CCCN1C(=O)[C@H](C)NC(=O)[C@H](CCC(=O)O)NC(=O)[C@@H]1CCCN1C(=O)[C@H](CCCCN)NC(=O)[C@@H]1CCCN1)C(=O)N[C@@H](CC(N)=O)C(=O)N[C@@H](Cc1c[nH]c2ccccc12)C(=O)N[C@@H](CC(C)C)C(=O)N[C@H](C(=O)N[C@@H](CCCNC(=N)N)C(=O)N[C@@H](CCC(N)=O)C(=O)N[C@@H](CCCNC(=N)N)C(=O)N[C@@H](Cc1ccccc1)C(N)=O)[C@@H](C)O` [Compound A65]: the values for the EC50 at human Y5 receptor, on human Y2 receptor and at human Y1 receptor were 2.51 nM, 0.0631 nM and 10 nM, respectively.
For `CC(C)C[C@H](NC(=O)[C@H](CC(=O)O)NC(=O)[C@H](CCCCN)NC(=O)[C@H](Cc1ccc(O)cc1)NC(=O)[C@H](Cc1ccc(O)cc1)NC(=O)[C@H](CCCNC(=N)N)NC(=O)[C@H](CC(N)=O)NC(=O)[C@H](Cc1c[nH]c2ccccc12)NC(=O)[C@H](CCC(=O)O)NC(=O)[C@H](CCC(=O)O)NC(=O)[C@@H]1CCCN1C(=O)[C@H](CO)NC(=O)[C@H](C)NC(=O)[C@H](CC(=O)O)NC(=O)[C@H](CCCCNC(=O)CC[C@H](NC(=O)CC[C@H](NC(=O)CCCCCCCCCCCCCCCCCCC(=O)O)C(=O)O)C(=O)O)NC(=O)CNC(=O)[C@@H]1CCCN1C(=O)[C@H](CCCCN)NC(=O)[C@H](CCC(=O)O)NC(=O)[C@@H]1CCCN1C(=O)[C@H](CCCCN)NC(=O)[C@@H]1CCCN1)C(=O)N[C@@H](CCCNC(=N)N)C(=O)N[C@@H](Cc1c[nH]cn1)C(=O)N[C@@H](Cc1ccc(O)cc1)C(=O)N[C@@H](CC(C)C)C(=O)N[C@@H](CC(N)=O)C(=O)N[C@@H](Cc1c[nH]c2ccccc12)C(=O)N[C@@H](CC(C)C)C(=O)N[C@H](C(=O)N[C@@H](CCCNC(=N)N)C(=O)N[C@@H](CCC(N)=O)C(=O)N[C@@H](CCCNC(=N)N)C(=O)N[C@@H](Cc1ccccc1)C(N)=O)[C@@H](C)O` [Compound A74], in that order: 1 nM, 0.0501 nM and 0.501 nM.
